Structures can show the parent of a compound that is named as a salt. Where two headings read alike, the source gives them in different places.
How the values were obtained:
5HT2 receptor = 5HT2 receptor (Rattus norvegicus, UniProt P14842); test: biochemical
Experimental: Binding was terminated by filtering samples under reduced pressure through glass fiber (GFB) filters. […] Radioactivity was measured with a liquid scintillation spectrometer.

5HT1C receptor = target: T1, 5HT1C receptor (Bos taurus, UniProt A0AAA9SBU1); test: Inhibition of 3H-mesulergine binding to 5HT1C receptor
T1 sequence (A0AAA9SBU1 33-457): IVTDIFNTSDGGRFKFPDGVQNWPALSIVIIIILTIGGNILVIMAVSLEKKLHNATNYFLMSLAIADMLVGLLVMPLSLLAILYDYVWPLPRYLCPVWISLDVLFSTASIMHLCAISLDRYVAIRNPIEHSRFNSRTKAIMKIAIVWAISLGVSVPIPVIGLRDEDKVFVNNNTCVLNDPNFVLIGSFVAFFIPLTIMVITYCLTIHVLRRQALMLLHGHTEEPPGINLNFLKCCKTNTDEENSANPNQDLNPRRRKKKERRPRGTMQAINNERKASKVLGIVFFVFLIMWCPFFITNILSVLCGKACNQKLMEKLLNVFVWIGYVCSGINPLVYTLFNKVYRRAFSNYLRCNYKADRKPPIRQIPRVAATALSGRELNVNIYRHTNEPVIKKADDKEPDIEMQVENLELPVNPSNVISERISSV
Experimental: (§1) Radioactivity was measured with a liquid scintillation spectrometer.

5HT1B receptor = target: T2, 5HT1B receptor (Rattus norvegicus, UniProt P28564); test: Inhibition of 3H-serotonin binding to 5HT1B receptor; set-up: species or system male Sprague-Dawley rats
T2 construct: membranes isolated from bovine choroid plexus (for 5HT1.sbsb.c) or rat brain; from tissue
Experimental: as §1

5HT1A receptor = target: T3, 5HT1A receptor (Rattus norvegicus, UniProt P19327); test: Inhibition of 3H-8-hydroxy-2-(di-n-propylamino)tetralin binding to 5HT1A receptor; set-up: species or system male Sprague-Dawley rats
T3 construct: membranes isolated from bovine choroid plexus (for 5HT1.sbsb.c) or rat brain; from tissue
T3 sequence (P19327 1-422): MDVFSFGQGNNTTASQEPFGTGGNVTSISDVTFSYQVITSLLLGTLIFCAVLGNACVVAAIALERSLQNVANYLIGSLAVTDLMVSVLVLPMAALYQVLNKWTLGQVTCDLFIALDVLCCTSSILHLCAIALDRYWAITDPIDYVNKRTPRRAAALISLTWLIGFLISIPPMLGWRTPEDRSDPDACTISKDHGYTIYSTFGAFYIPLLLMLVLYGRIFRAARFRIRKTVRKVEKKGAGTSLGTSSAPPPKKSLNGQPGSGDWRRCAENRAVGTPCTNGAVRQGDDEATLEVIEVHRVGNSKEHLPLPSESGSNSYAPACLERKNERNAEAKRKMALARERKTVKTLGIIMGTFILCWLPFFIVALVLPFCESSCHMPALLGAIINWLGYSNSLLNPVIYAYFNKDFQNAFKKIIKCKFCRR
Experimental: as §1

5HT1D receptor = test: Inhibition of 3H-serotonin binding to 5HT1D receptor; set-up: species or system male Sprague-Dawley rats; details: rat brain membranes, 25 °C, 30 min, pH 7.4, read-out: Inhibition of Radioligand Binding to 5HT Receptor 1D (IC50)
Experimental: as §1

T2 sequence (P28564 whole entry): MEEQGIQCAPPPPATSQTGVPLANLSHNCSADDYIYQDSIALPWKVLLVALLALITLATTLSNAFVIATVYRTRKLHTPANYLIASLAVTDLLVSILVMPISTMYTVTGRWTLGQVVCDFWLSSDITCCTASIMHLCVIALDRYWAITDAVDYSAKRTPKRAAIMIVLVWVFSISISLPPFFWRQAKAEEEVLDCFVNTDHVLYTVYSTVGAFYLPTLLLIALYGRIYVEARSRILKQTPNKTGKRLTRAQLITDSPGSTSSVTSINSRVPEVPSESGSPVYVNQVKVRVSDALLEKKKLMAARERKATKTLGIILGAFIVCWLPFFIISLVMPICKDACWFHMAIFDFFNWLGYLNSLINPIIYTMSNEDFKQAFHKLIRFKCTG
5HT2 receptor, sequence (P14842 whole entry): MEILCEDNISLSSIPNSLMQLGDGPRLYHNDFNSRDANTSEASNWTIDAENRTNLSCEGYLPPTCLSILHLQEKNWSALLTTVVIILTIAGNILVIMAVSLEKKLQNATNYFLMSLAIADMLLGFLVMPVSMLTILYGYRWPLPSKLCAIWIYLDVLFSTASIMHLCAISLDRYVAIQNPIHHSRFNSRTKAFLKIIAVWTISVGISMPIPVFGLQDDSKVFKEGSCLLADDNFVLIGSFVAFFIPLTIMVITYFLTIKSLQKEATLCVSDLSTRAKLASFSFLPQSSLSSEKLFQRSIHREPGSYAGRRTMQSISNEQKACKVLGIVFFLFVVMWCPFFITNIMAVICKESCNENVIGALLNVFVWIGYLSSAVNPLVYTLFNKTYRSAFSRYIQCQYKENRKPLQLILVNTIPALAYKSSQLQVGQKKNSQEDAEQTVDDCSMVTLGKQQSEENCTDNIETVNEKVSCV

SMILES	IC50 (5HT2 receptor)	IC50 (5HT1C receptor; read-out: Inhibition of Radioligand Binding to 5HT Receptor 1C (IC50); bovine choroid plexus membranes; 2 nM 3H-mesulergine; 25 °C, 30 min, pH 7.4)	IC50 (5HT1B receptor; rat brain membranes, 3H-serotonin, 25 °C, 30 min, pH 7.4, read-out: Inhibition of Radioligand Binding to 5HT Receptor 1B (IC50))	IC50 (5HT1A receptor; rat brain membranes, 3H-8-hydroxy-2-(di-n-propylamino)tetralin, 25 °C, 30 min, pH 7.4, read-out: Inhibition of Radioligand Binding to 5HT Receptor 1A (IC50))	IC50 (5HT1D receptor)	IC50 (5HT1C receptor; bovine choroid plexus membranes; 2 nM 3H-mesulergine; 25 °C, 30 min, pH 7.4; read-out: Inhibition of Radioligand Binding to 5HT Receptor 1C (IC50))	IC50 (5HT1B receptor)	IC50 (5HT1A receptor)
CC(=O)N[C@H]1CC[C@H](NC(=O)[C@@H]2C[C@@H]3c4cccc5c4c(cn5C(C)C)C[C@H]3N(C)C2)CC1 (relative stereo) [Example 1, (8β)-N-(trans-4-acetamidocyclohexyl)-1-isopropyl-6-methylergoline-8-carboxamide]	31 nM	18 nM	> 1000 nM	2310 nM	198 nM			
CC(C)n1cc2c3c(cccc31)[C@H]1C[C@@H](C(=O)N[C@H]3CC[C@H](NS(C)(=O)=O)CC3)CN(C)[C@@H]1C2 (relative stereo) [Example 2, (8β)-N-(trans-4-methylsulfonamidocyclohexyl)-1-isopropyl-6-methylergoline-8-carboxamide maleate]	23 nM				276 nM	22 nM	489 nM	2650 nM
